# Results taken from patent EP4818193A1, “COMPOSITION AND METHOD FOR TREATING NEONATAL HYPOXIC-ISCHEMIC ENCEPHALOPATHY” (Suzhou Glenkol Pharma Technology Co., Ltd., priority 2023, dated 2025).
# Experiments:
# [1] = system: cerebral cortical neural cells; test: Lactate dehydrogenase (LDH) cytotoxicity assay after oxygen-glucose deprivation; format: cell-based, neonatal rats; design: dose or concentration left out as unconfirmed; conditions: added at initiation of oxygen-glucose deprivation; 24 hours after injury; compared to untreated oxygen-glucose deprivation group, p < 0.05
# [2] = system: cerebral cortical neural cells; test: MTT assay for cell viability after oxygen-glucose deprivation; format: cell-based, neonatal rats; design: dose or concentration left out as unconfirmed; conditions: added at initiation of oxygen-glucose deprivation; 24 hours after injury; compared to untreated oxygen-glucose deprivation group, p < 0.05
substance,measurement,setting,value
Davunetide [NaP],LDH release levels,[1],significantly reduced
same,MTT formation levels,[2],significantly increased
